Peptide text beside a SMILES is read from it.

These results are taken from patent US7238830B2, “N-alkylaspartyl dipeptide ester compounds” (Ajinomoto Co., Inc., priority 1998, dated 2007).

A short description of data set [1]: Sensory evaluation of sweetness (sweetening potency) relative to sucrose. Conditions: for Sweetness (sweetening potency): sensory evaluation; for sweetness potency: values compared to sweetening potency of a 4% aqueous solution of sucrose. An excerpt:
For example, the sweetness of N-[N-[3-(3-hydroxy-4-methoxyphenyl)-3-methylbutyl]-L-α-aspartyl]-L-phenylalanine 1-methyl ester was approximately 70000 times that of sugar, the sweetness of N-[N-[3-(3-methyl-4 hydroxyphenyl)-3-methylbutyl]-L-α-aspartyl]-L-phenylalanine 1-methyl ester was approximately 70000 times that of sugar, the sweetness of N-[N-[3-(3-hydroxy-4-methylphenyl)-3-methylbutyl]-L-α- aspartyl]-L-phenylalanine 1-methyl ester was approximately 60000 times that of sugar, and the sweetness of N-[N-((RS)-3-(3 hydroxy-4-methoxyphenyl) butyl]-L-α-aspartyl]-L-phenylalanine 1-methyl ester was approximately 50000 times that of sugar. […] Sensory evaluations can be performed as described in, for example, B. T. Carr, S. D. Pecore, K. M. Gibes and G. E. Dubois, “Sensory Methods for Sweetner Evaluation” in Flavor Measurement, edited by C. T. Ho and C. H. Manley, Marcel Decker, Inc. (1992).

A short description of a further data set: physchem. The data set is classed as physicochemical.
For data set [2] the following is noted: reported in WO 94/11391; compared to 2%, 5% and 10% sucrose solutions; cited from earlier work.

As for `COC(=O)[C@H](Cc1ccccc1)NC(=O)[C@H](CC(=O)O)NCCC(C)(C)c1ccc(O)cc1` [Compound 8, N-[N-[3-(4-hydroxyphenyl)-3-methylbutyl]-L-α-aspartyl]-L-phenylalanine 1 methyl ester], in data set [1], the “Sweetness (sweetening potency)” value is 25000 times the sweetness of sugar and the sweetness potency was determined as 25000. Further, the “half life in a buffer” value in the data set “physchem” was determined as 43.6 h.
Take `COC(=O)[C@H](Cc1ccccc1)NC(=O)[C@H](CC(=O)O)NCCC(C)(C)c1ccc(O)c(OC)c1` [Compound 9, N-[N-[3-(3-methoxy-4-hydroxyphenyl)-3-methylbutyl]-L-α-aspartyl)-L-phenylalanine 1 methyl ester]: in data set [1], the “Sweetness (sweetening potency)” value is reported as 40000 times the sweetness of sugar and the sweetness potency is recorded as 40000. Also, the “half life in a buffer” value in the data set “physchem” is 34.4 h.
On to `COC(=O)[C@H](Cc1ccccc1)NC(=O)[C@H](CC(=O)O)NCCC(C)(C)c1ccc(OC)c(O)c1` [Compound 10, N-[N-[3-(3-hydroxy-4-methoxyphenyl)-3-methylbutyl]-L-α-aspartyl]-L-phenylalanine 1-methyl ester], for which the “Sweetness (sweetening potency)” value in data set [1] (listed as Example 1) is on record as 70000 times the sweetness of sugar. Besides, the sweetness potency in data set [1] is listed as 70000. Further, in the data set “physchem”, the “half life in a buffer” value was determined as 44.5 h.
`COC(=O)[C@H](Cc1ccccc1)NC(=O)[C@H](CC(=O)O)NCCCc1ccc(O)c(OC)c1` [N-[N-(3-(3-methoxy-4-hydroxyphenylpropyl)-L-α-aspartyl]-L-phenylalanine 1-methyl ester]: the sweetening potency in data set [2] is recorded as 2500 times that of sucrose.
Consider `COC(=O)[C@H](Cc1ccccc1)NC(=O)[C@H](CC(=O)O)NCCCc1ccccc1` [N-[N-(3-phenylpropyl)-L-(α-aspartyl]-L-phenylalanine 1-methyl ester], for which the sweetening potency in data set [2] was 1500 times that of sucrose.
One may read the half-life as the time needed for the level to fall by half in the phase considered. A lower half-life goes with rapid decline. Turning to `COC(=O)[C@H](Cc1ccccc1)NC(=O)[C@@H](N)CC(=O)O` [aspartame, reference compound] (H-Asp-Phe-OMe), the half-life in the data set “physchem” (buffer, pH 3) is 23.5 h.
